Test results from patent US20230192622A1, “ANTI-SARS-COV-2 DRUG” (ONCOLYS BIOPHARMA, INC., priority 2020, published 2023).
Where two headings read alike, the source gives them in different places.

Legend:
SARS-CoV-2 (WK-521) [1] = experiment: microbe, parasite or virus in culture; assay type: cell-based; settings: Severe acute respiratory syndrome coronavirus 2, HEK-293T, 72 h, HEK293T/ACE2 cells, MOI=0.1, 3 days, qPCR of viral RNA in supernatant; for IC90: read-out: IC50(μM) (footnote defines IC90: 90% inhibitory concentration); for IC50: read-out: IC50: 50% inhibitory concentration (reduces viral production and replication by 50%)
in vitro [2] = settings: human
SARS-CoV-2 (WK-521) [3] = experiment: Anti-SARS-CoV-2 effect, assay with VeroE6/TMPRSS2 cells (inhibition of virus-induced cell death, Cell Counting Kit-8); assay type: cell-based; settings: for EC50: VeroE6/TMPRSS2 cells, MOI=0.01, 3 days of culture, read-out: EC50: 50% effective concentration (concentration of agent which inhibits cell death induced by SARS-CoV-2 infection by 50%)
in vitro [4] = settings: African green monkey
VeroE6/TMPRSS2 cells [5] = settings: African green monkey, 3 days
VeroE6/TMPRSS2 cells [6] = experiment: Cytotoxicity in uninfected VeroE6/TMPRSS2 cells (viable cell number, Cell Counting Kit-8); settings: read-out: CC50: 50% cytotoxic concentration (concentration of agent which reduces the number of viable cells by 50%), 3 days of culture

Compound	IC90 (SARS-CoV-2 (WK-521) [1]) [µM]	IC50 (SARS-CoV-2 (WK-521) [1]) [µM]	CC50 at 3 days (in vitro [2]) [µM]	EC50 (SARS-CoV-2 (WK-521) [3]) [µM]	CC50 at 3 days (in vitro [4]) [µM]	further results
CCCCn1c(=O)c2cc(F)c(OC3COC3)cc2c2cc(C(O)(C(F)(F)F)C(F)(F)F)ccc21 [NR-80]	6.16	0.59	19.1			
CCCCn1c(=O)c2cc(OC)ccc2c2cc(C(O)(C(F)(F)F)C(F)(F)F)ccc21 [KZ12]				8.8	> 10	
CCCCn1c(=O)c2cc(F)c(O[C@@H]3COC[C@@H]3O)cc2c2cc(C(O)(C(F)(F)F)C(F)(F)F)ccc21 [NR-65]	6.76	0.2	18.2			
CCCCn1c(=O)c2cc(OCCO)ccc2c2cc(C(O)(C(F)(F)F)C(F)(F)F)cc(OC)c21 [NR-26]	14.8	1.24	> 20			
CCCCn1c(=O)c2cc(OC3CCOC3)c(OC3CCOC3)cc2c2cc(C(O)(C(F)(F)F)C(F)(F)F)ccc21 (centres unmarked) [NR-67]	> 10	1.32	19			
CCCCn1c(=O)c2cc(OC)ccc2c2cc(C(O)(C(F)(F)F)C(F)(F)F)c(OC)c(OC)c21 [HA-727, 5-butyl-2-(1′,1′,1′,3′,3′,3′-hexafluoro-2′-hydroxypropan-2′-yl)-3,4,8-trimethoxy-phenanthridin-6(5H)-one]				4.8	> 10	
CCCCn1c(=O)c2ccc(OCC(C)(C)O)cc2c2cc(C(O)(C(F)(F)F)C(F)(F)F)ccc21 [NR-32, 5-butyl-2-(1,1,1,3,3,3-hexafluoro-2-hydroxypropan-2-yl)-9-(2-hydroxy-2-methylpropyloxy)phenanthridin-6(5H)-one]	2.34	0.27	> 20			
CCCCn1c(=O)c2cc3c(cc2c2cc(C(O)(C(F)(F)F)C(F)(F)F)c4c(c21)OCO4)OCO3 [HA-754]				5	> 10	
CCCCn1c(=O)c2ccc(C)cc2c2cc(C(O)(C(F)(F)F)C(F)(F)F)ccc21 [YN033]				6		CC50 (VeroE6/TMPRSS2 cells [5]): > 10 µM
CCCCn1c(=O)c2cc(F)c(OCC(N)=O)cc2c2cc(C(O)(C(F)(F)F)C(F)(F)F)ccc21 [NR-63]	2.48	0.21	> 20			
CCCCn1c(=O)c2cccc(OC)c2c2cc(C(O)(C(F)(F)F)C(F)(F)F)ccc21 [KZ33, 5-butyl-2-(1′,1′,1′,3′,3′,3′-hexafluoro-2′-hydroxypropan-2′-yl)-10-methoxy-phenanthridin-6(5H)-one]				4.1	> 10	
CCCCn1c(=O)c2ccc(OC(CO)CO)cc2c2cc(C(O)(C(F)(F)F)C(F)(F)F)ccc21 [NR-46]	3.76	0.44	> 20			
CCCCn1c(=O)c2c(OC)cccc2c2cc(C(O)(C(F)(F)F)C(F)(F)F)ccc21 [KZ31, 5-butyl-2-(1′,1′,1′,3′,3′,3′-hexafluoro-2′-hydroxypropan-2′-yl)-7-methoxy-phenanthridin-6(5H)-one]				3.3	> 10	
CCCCn1c(=O)c2ccccc2c2cc(C(O)(C(F)(F)F)C(F)(F)F)c3c(c21)OCO3 [HA-718, 4-butyl-11-(1′,1′,1′,3′,3′,3′-hexafluoro-2′-hydroxypropan-2′-yl)-[1,3]dioxolo [4,5-c]phenanthridin-5(4H)-one]				3.1	> 10	
CCCCn1c(=O)c2ccccc2c2cc(C(O)(C(F)(F)F)C(F)(F)F)cc(C)c21 [KZ07]				3.3		CC50 (VeroE6/TMPRSS2 cells [5]): > 10 µM
CCCCn1c(=O)c2ccc(O)cc2c2cc(C(O)(C(F)(F)F)C(F)(F)F)ccc21 [YN029, 5-butyl-2-(1′,1′,1′,3′,3′,3′-hexafluoro-2′-hydroxypropan-2′-yl) hydroxyphenanthridin-6(5H)-one]	3.04	0.588	16.9	1.9	> 10	
CCCCn1c(=O)c2cc(NC(=O)C3CC3)ccc2c2cc(C(O)(C(F)(F)F)C(F)(F)F)ccc21 [NR-51]	1.8	0.3	8.4			
CCCCn1c(=O)c2cc3c(cc2c2cc(C(O)(C(F)(F)F)C(F)(F)F)ccc21)OC1COCC1O3 (centres unmarked) [NR-84]	5.83	1.74	> 20			

Compound	IC90 (SARS-CoV-2 (WK-521) [1]) [µM]	IC50 (SARS-CoV-2 (WK-521) [1]) [µM]	CC50 at 3 days (in vitro [2]) [µM]	EC50 (SARS-CoV-2 (WK-521) [3]) [µM]	CC50 at 3 days (in vitro [4]) [µM]	further results
CC(C)Cn1c(=O)c2ccccc2c2cc(C(O)(C(F)(F)F)C(F)(F)F)ccc21 [KZ01]				5.4	> 10	
CCCCn1c(=O)c2ccc(OC)cc2c2cc(C(O)(C(F)(F)F)C(F)(F)F)ccc21 [KZ32, 5-butyl-2-(1′,1′,1′,3′,3′,3′-hexafluoro-2′-hydroxypropan-2′-yl)-9-methoxy-phenanthridin-6(5H)-one]	7.37	1.03	> 20	1.8	> 10	
CCCCn1c(=O)c2cc(F)c(OCCNC(C)=O)cc2c2cc(C(O)(C(F)(F)F)C(F)(F)F)ccc21 [NR-62]	7.82	1.28	13			
CCCCn1c(=O)c2cc(F)c(OCCO)cc2c2cc(C(O)(C(F)(F)F)C(F)(F)F)ccc21 [NR-61]	4.99	1.09	19			
CCCCn1c(=O)c2cc(C)ccc2c2cc(C(O)(C(F)(F)F)C(F)(F)F)ccc21 [KZ24]				4.1		CC50 (VeroE6/TMPRSS2 cells [5]): > 10 µM
CCCCn1c(=O)c2cc(F)c(OC3CCOC3)cc2c2cc(C(O)(C(F)(F)F)C(F)(F)F)ccc21 (centres unmarked) [NR-66]	5.66	0.8	13.9			
5-butyl-2-(1′,1′,1′,3′,3′,3′-hexafluoro-2′-hydroxypropan-2′-yl)-7,8,9-trimethoxy-phenanthridin-6(5H)-one [KZ39]				8.6		CC50 (VeroE6/TMPRSS2 cells [6]): > 10 µM
CCCCn1c(=O)c2cc(F)c(OCCN(C)C)cc2c2cc(C(O)(C(F)(F)F)C(F)(F)F)ccc21 [NR-60]	> 10	0.95	6.73			
CCCCn1c(=O)c2ccccc2c2cc(C(O)(C(F)(F)F)C(F)(F)F)cc(OC)c21 [KZ08]				2.9	> 10	
CCCCn1c(=O)c2ccccc2c2cc(C(O)(C(F)(F)F)C(F)(F)F)ccc21 [HA-579]				8.7	> 10	
CCCCn1c(=O)c2cc(O)c(OC3(C)CNC3)cc2c2cc(C(O)(C(F)(F)F)C(F)(F)F)ccc21 [NR-58]	4.69	1.04	10.6			
CCCCn1c(=O)c2cc(O)ccc2c2cc(C(O)(C(F)(F)F)C(F)(F)F)cc(OC)c21 [NR-19]	4.44	0.61	> 20			
CCCCn1c(=O)c2cc(F)c(OCC(O)CO)cc2c2cc(C(O)(C(F)(F)F)C(F)(F)F)ccc21 (centres unmarked) [NR-82]	8.57	0.95	14.5			
CCCCn1c(=O)c2ccc(OCC(=O)NC)cc2c2cc(C(O)(C(F)(F)F)C(F)(F)F)ccc21 [NR-97]	3.27	0.24	> 20			
CCCCn1c(=O)c2cc(OC)ccc2c2cc(C(O)(C(F)(F)F)C(F)(F)F)c3c(c21)OCO3 [HA-719, 4-butyl-11-(1′,1′,1′,3′,3′,3′-hexafluoro-2′-hydroxypropan-2′-yl)-7-methoxy-[1,3]dioxolo[4,5-c]phenanthridin-5(4H)-one]				2.6	> 10	cell death due to SARS-CoV-2 infection observed under a microscope (FIG. 2) (SARS-CoV-2 (WK-521) [3]; 5 μM of HA-719, VeroE6/TMPRSS2 cells): almost no cell death was observed
CCCCn1c(=O)c2cc3c(cc2c2cc(C(O)(C(F)(F)F)C(F)(F)F)ccc21)OCO3 [KZ26, 5-butyl-2-(1′,1′,1′,3′,3′,3′-hexafluoro-2′-hydroxypropan-2′-yl)-[1,3] dioxolo[4,5-j] phenanthridin-6(5H)-one]				2.9	> 10	
CCCCn1c(=O)c2ccc(OCCO)cc2c2cc(C(O)(C(F)(F)F)C(F)(F)F)ccc21 [NR-04, 5-butyl-2-(1,1,1,3,3,3-hexafluoro-2-hydroxypropan-2-yl)-9-(2-hydroxyethoxy)-phenanthridin-6(5H)-one]	3.72	0.489	> 20			
